This is an account of results in US20140303182A1, “PHARMACEUTICALLY ACCEPTABLE SALTS OF QUINOLINONE COMPOUNDS HAVING IMPROVED PHARMACEUTICAL PROPERTIES” (NOVARTIS AG, priority 2003, published 2014).

Where “and” joins values, the source holds several entries; their conditions need not be identical. Equal entries are not always repeated. Where two headings read alike, the source gives them in different places.

A short description of data set [1]: Aqueous equilibrium solubility and pH at saturation. It is filed as physicochemical. Particulars: for Solubility: water, 24 hours at 22° C., HPLC, free base equivalent.
The next data set can be described thus: Crystallinity by XRPD. It is filed as physicochemical. How it is done:
XRPD analyses were carried out on a Shimadzu XRD-6000 X-ray powder diffractometer using Cu Kα radiation. The instrument is equipped with a fine focus X-ray tube. The tube voltage and amperage were set to 40 kV and 40 mA, respectively. The divergence and scattering slits were set at 1° and the receiving slit was set at 0.15 mm. Diffracted radiation was detected by a NaI scintillation detector. A theta-two theta continuous scan at 3°/minute (0.4 seconds/0.02° step) from […] was used.

A short description of data set [2]: Hygroscopicity, moisture sorption/desorption. Format: physicochemical.
Data set [3] is described as follows: Chemical stability, solution state (HPLC). Format: physicochemical.
A further data set in a line: Compaction studies. Particulars: 200 mg at 5000 psi; for Tensile strength of compact: SC = Strong Cobb. It is filed as physicochemical.
Data set [4] is described as follows: Crystal morphology, polarized light microscope. Format: physicochemical. The conditions noted are these: 10× and 40× magnification.
Data set [5] in a line: Chemical stability, solid state (HPLC). The conditions noted are these: solid state.

As to `CN1CCN(c2ccc3nc(-c4c(N)c5c(F)cccc5[nH]c4=O)[nH]c3c2)CC1` (racemic) [Mono-lactate, 4-Amino-5-fluoro-3-[6-(4-methylpiperazin-1-yl)-1H-benzimidazol-2-yl]-1H-quinolin-2-one], the “solubility in water” value in data set [1] (water / distilled water, listed as lactate salt) is given as “about 330 mg/mL”. In addition, the Solubility is 182 mg FB/mL and 202 mg FB/mL and 196 mg FB/mL and 330 mg FB/mL and 216 mg FB/mL in data set [1]; 34.2 mg FB/mL in data set [1] (listed as Lactate). Also, the Crystallinity entry in the data set “Crystallinity by XRPD” is “crystalline”; in “Crystallinity by XRPD” (listed as DL-lactate), “crystalline”; in the data set “Crystallinity by XRPD” (listed as Lactate), “mixture of crystalline”; in “Crystallinity by XRPD” (listed as mono-DL-lactate), “mixture of crystalline and amorphous material”. Besides, the “hygroscopicity (verdict)” value in data set [2] is on record as “non-hygroscopic”. The “Area % at Time = 0” value in data set [3] (5° C.) is reported as 98.80 Area %; in data set [3] (ambient temperature), 98.80 Area %; in data set [5] (30° C./60% Relative humidity), 98.41 Area %; in data set [5] (40° C./70% Relative humidity), 98.46 Area %. Further, the “Area % at Time = 7 days” value in data set [3] (5° C.) was 98.60 Area %; in data set [3] (ambient temperature), 98.71 Area %. For the same compound, the “Forms Compact” value is reported as “form compacts” in the data set “Compaction studies”, “Yes” in the data set “Compaction studies” (listed as Lactate-trial 1), “Yes” in “Compaction studies” (listed as Lactate-trial 2) and “Yes” in “Compaction studies” (listed as Lactate-trial 3). The figures for the “Tensile strength of compact” value in “Compaction studies” (listed as Lactate-trial 1), in “Compaction studies” (listed as Lactate-trial 2) and in “Compaction studies” (listed as Lactate-trial 3) were 13.8 SC, 17.9 SC and 16.1 SC, respectively. The Thickness of compact in “Compaction studies” (listed as Lactate-trial 1) was determined as 3.06 mm; in the data set “Compaction studies” (listed as Lactate-trial 2), 2.92 mm; in the data set “Compaction studies” (listed as Lactate-trial 3) it was 2.97 mm. Besides, the Morphology result in data set [4] (listed as Lactate-trial 1) is on record as “Plate”; in data set [4] (listed as Lactate-trial 2), “Plate”; in data set [4] (listed as Lactate-trial 3) it was “Plate”; in data set [4] (listed as lactate salts), “plate”. Moreover, the figures for the “Area % at Time = 6 weeks” value in data set [5] (30° C./60% Relative humidity) and in data set [5] (40° C./70% Relative humidity) were 99.04 Area % and 98.55 Area %, respectively.

`CN1CCN(c2ccc3nc(-c4c(N)c5c(F)cccc5[nH]c4=O)[nH]c3c2)CC1` [Mono-mesylate, 4-Amino-5-fluoro-3-[6-(4-methylpiperazin-1-yl)-1H-benzimidazol-2-yl]-1H-quinolin-2-one]: the Solubility was 185 mg FB/mL and 180 mg FB/mL in data set [1]; 22.3 mg FB/mL in data set [1] (listed as Mesylate). The Crystallinity result in “Crystallinity by XRPD” was “crystalline”; in the data set “Crystallinity by XRPD” (listed as Mesylate), “mixture of crystalline”; in “Crystallinity by XRPD” (listed as mesylate) it was “crystalline”; in the data set “Crystallinity by XRPD” (listed as mono-mesylate), “mixture of crystalline and amorphous material”. The “Area % at Time = 0” value in data set [3] (5° C.) was found to be 98.70 Area %; in data set [3] (ambient temperature), 98.70 Area %; in data set [5] (30° C./60% Relative humidity), 98.80 Area %; in data set [5] (40° C./70% Relative humidity), 98.89 Area %. In addition, the “Area % at Time = 7 days” value is reported as 98.76 Area % in data set [3] (5° C.) and 98.77 Area % in data set [3] (ambient temperature). Also, the “Forms Compact” value in the data set “Compaction studies” is “form compacts”; in the data set “Compaction studies” (listed as Mesylate-trial 1) it was “Yes”; in “Compaction studies” (listed as Mesylate-trial 2), “Yes”. Moreover, the “Tensile strength of compact” value is 6.9 SC in the data set “Compaction studies” (listed as Mesylate-trial 1) and 17.9 SC in “Compaction studies” (listed as Mesylate-trial 2). Moreover, the Thickness of compact in the data set “Compaction studies” (listed as Mesylate-trial 1) came out at 2.77 mm; in “Compaction studies” (listed as Mesylate-trial 2), 2.87 mm. Further, the Morphology result in data set [4] is “varies from plate to needle”; in data set [4] (listed as Mesylate-trial 1), “Plate”; in data set [4] (listed as Mesylate-trial 2), “Needle”. In addition, the “Area % at Time = 6 weeks” value stood at 98.68 Area % in data set [5] (30° C./60% Relative humidity) and 98.7 Area % in data set [5] (40° C./70% Relative humidity).

`CN1CCN(c2ccc3nc(-c4c(N)c5c(F)cccc5[nH]c4=O)[nH]c3c2)CC1` [Mono-malate, 4-Amino-5-fluoro-3-[6-(4-methylpiperazin-1-yl)-1H-benzimidazol-2-yl]-1H-quinolin-2-one]: in data set [1] (listed as L-Malate), the Solubility is reported as 69 mg FB/mL. Moreover, the Crystallinity entry in “Crystallinity by XRPD” is “crystalline”; in “Crystallinity by XRPD” (listed as L-Malate) it was “mixture of crystalline”; in the data set “Crystallinity by XRPD” (listed as L-malate), “mixture of crystalline and amorphous material”. Also, in data set [2], the “hygroscopicity (verdict)” value is on record as “non-hygroscopic”. Further, the “Area % at Time = 0” value in data set [3] (5° C.) and in data set [3] (ambient temperature) was 98.70 Area % in each case. In addition, the entries for the “Area % at Time = 7 days” value in data set [3] (5° C.) and in data set [3] (ambient temperature) were 98.69 Area % and 98.65 Area %, respectively. In the data set “Compaction studies”, the “Forms Compact” value was “form compacts”. In data set [4], the Morphology entry is “needle”.
